Article PMC4204886 (Biochemistry, 2014)

Columns and labels:
[1] = test system: CC(=O)OCC1=C(C(=O)O)N2C(=O)[C@@H](NC(=O)Cc3cccs3)[C@H]2SC1; assay: AmpC β-lactamase inhibition, steady-state competition with cephalothin; type: biochemical; settings: pH 7.5; 25.0 °C
class C P99 β-lactamase [2] = target: T1, class C P99 β-lactamase (Enterobacter cloacae, UniProt P05364); settings: read-out: Km of the substrate; P99 enzyme; 20 mM MOPS pH 7.50, 25 °C; cited from earlier work
class C P99 β-lactamase [3] = target: T1, class C P99 β-lactamase; assay: P99 β-lactamase inhibition, steady-state competition with cephalothin; type: biochemical
AmpC β-lactamase = AmpC β-lactamase (Escherichia coli, UniProt P00811); assay: AmpC β-lactamase inhibition, steady-state competition with cephalothin; type: biochemical
[4] = target: class A TEM-2 β-lactamase (Escherichia coli, UniProt P62593, Q37K); type: biochemical, E. coli W3310
[5] = target: class A Staphylococcus aureus PC1 β-lactamase (Staphylococcus aureus, UniProt P00807); assay: PC1 β-lactamase inhibition; type: biochemical
[6] = target: Actinomadura R39 DD-peptidase (Actinomadura sp., UniProt P39045); assay: R39 DD-peptidase inhibition in solution; type: biochemical
[7] = target: class A SHV-1 β-lactamase (Klebsiella pneumoniae, UniProt P0AD64); assay: SHV-1 β-lactamase inhibition; type: biochemical; settings: even at 1 mM concentrations
[8] = target: Streptomyces R61 DD-peptidase (Streptomyces sp., UniProt P15555); assay: R61 DD-peptidase inhibition in solution; type: biochemical
B. subtilis PBP4a = B. subtilis PBP4a (Bacillus subtilis, UniProt P39844); assay: PBP4a inhibition in solution; type: biochemical
E. coli PBP1a/1b = assay: Membrane-bound PBP inhibition, Bocillin Fl competition gel; type: binding; settings: gel experiments, E. coli membranes, 1 h preincubation, Bocillin Fl 20 μM
E. coli PBP2 = E. coli PBP2 (Escherichia coli, UniProt P0AD65); assay: as above; type: binding; settings: gel experiments, E. coli membranes, 1 h preincubation, Bocillin Fl 20 μM
E. coli PBP3 = E. coli PBP3 (Escherichia coli, UniProt P0AD68); assay: as above; type: binding; settings: gel experiments, E. coli membranes, 1 h preincubation, Bocillin Fl 20 μM
E. coli PBP4 = E. coli PBP4 (Escherichia coli, UniProt P24228); assay: as above; type: binding; settings: gel experiments, E. coli membranes, 1 h preincubation, Bocillin Fl 20 μM
E. coli PBP5 = E. coli PBP5 (Escherichia coli, UniProt P0AEB2); assay: as above; type: binding; settings: gel experiments, E. coli membranes, 1 h preincubation, Bocillin Fl 20 μM
TEM-1 β-lactamase = TEM-1 β-lactamase (Escherichia coli, UniProt P62593, Q37K); assay: TEM-1 β-lactamase inhibition; type: biochemical; settings: even at 1 mM concentrations
[9] = test system: Pseudomonas class C β-lactamase; settings: cited from earlier work
class A BCI β-lactamase = settings: cited from earlier work

“AmpC β-lactamase (Escherichia coli K-12)” showed a Km [1] of 13.8 µM.
In the case of `CC(=O)OCC1=C(C(=O)O)N2C(=O)[C@@H](NC(=O)Cc3cccs3)[C@H]2SC1` [cephalothin], the Km (class C P99 β-lactamase [2]) is given as 9 µM.
With `CC1(C)SC(C(NC(=O)Cc2ccccc2)B(O)O)NC1C(=O)O` (centres unmarked) [compound 12, 2-[1-(dihydroxyboranyl)(2-phenylacetamido)methyl]-5,5-dimethyl-1,3-thiazolidine-4-carboxylic acid] the Ki (class C P99 β-lactamase [3]) was 950 ± 110 nM, the Ki (AmpC β-lactamase) was 1300 ± 400 nM and the Ki ([4]; TEM-2 β-lactamase, NI = no inhibition at 1.0 mM) was “NI ^b”. For the same compound, the “inhibition of TEM-2 enzyme over time” value ([4]; in 24 h) was “no inhibition”, the Ki ([5]; PCI β-lactamase, NI = no inhibition at 1.0 mM) was “NI ^b” and the “inhibition of PCI β-lactamase” value ([5]; even at 1 mM concentrations) was “Neither the TEM-1, SHV-1, nor PCI β-lactamases were inhibited”. For the same compound, the Ki ([6]; R39 DD-peptidase, NI = no inhibition at 0.10 mM) was “NI ^c”, the “inhibition of Actinomadura R39 DD-peptidase” value ([6]; in solution) was “no inhibition” and the “inhibition of SHV-1 β-lactamase” value [7] was “Neither the TEM-1, SHV-1, nor PCI β-lactamases were inhibited”. The “inhibition of Streptomyces R61 DD-peptidase” value [8] was “no inhibition”, the “inhibition of B. subtilis PBP4a” value (B. subtilis PBP4a) was “no inhibition” and the “inhibition of E. coli PBP1a/1b” value (E. coli PBP1a/1b) was “did not inhibit”. The “inhibition of E. coli PBP2” value (E. coli PBP2) was “did not inhibit”, the “inhibition of E. coli PBP3” value (E. coli PBP3) was “did not inhibit” and the “inhibition of E. coli PBP4” value (E. coli PBP4) was “did not inhibit”. For the same compound, the “inhibition of E. coli PBP5” value (E. coli PBP5) was “did not inhibit” and the “inhibition of TEM-1 β-lactamase” value (TEM-1 β-lactamase) was “Neither the TEM-1, SHV-1, nor PCI β-lactamases were inhibited”.
In the case of “Methyl penicilloate [compound 28, reference compound]”, the substrate activity (class C P99 β-lactamase [3]; P99 β-lactamase, see Supporting Information) is listed as “substrate”, the “substrate / covalent inhibitor activity” value [4] is listed as “neither a substrate nor a covalent inhibitor” and the substrate activity [9] is listed as “substrate”. For the same compound, the “substrate / covalent inhibitor activity” value (class A BCI β-lactamase) was “neither a substrate nor a covalent inhibitor”.
